Literature values in patent US20140127295A1, “COMPOSITIONS, PROCESS OF PREPARATION OF SAID COMPOSITIONS AND METHOD OF TREATING INFLAMMATORY DISEASES” (priority 2011, published 2014).

Columns and labels:
[1] = in vivo
[2] = in mice

| Compound | Tmax [1] | Cmax [1] | T½ [1] | maximum tolerated dose [2] |
| --- | --- | --- | --- | --- |
| CCC(C)(C)C(=O)O[C@H]1C[C@@H](C)C=C2C=C[C@H](C)[C@H](CC[C@@H]3C[C@@H](O)CC(=O)O3)[C@H]21 [CW302, (1S,3R,7S,8S,8aR)-8-{2-[(4R)-4-hydroxy-6-oxooxan-2-yl]ethyl}-3,7-dimethyl-1,2,3,7,8,8a-hexahydronaphthalen-1-yl 2,2-dimethylbutanoate] | 1.9 h | – | – | – |
| CCCc1nn(C)c2c(=O)[nH]c(-c3cc(S(=O)(=O)N4CCN(C)CC4)ccc3OCC)nc12 [CW305, 5-[2-ethoxy-5-(4-methylpiperazine-1-sulfonyl)phenyl]-1-methyl-3-propyl-1H,4H,7H-pyrazolo[4,3-d]pyrimidin-7-one] | 1 h | 440 ng/mL | 4 to 5 h | 8.5 mg/kg |
